# Assay results from ChEMBL document CHEMBL1201862, “PubChem BioAssay data set” (2004).
# Active and inactive are the calls of the source.
# What was measured:
# Cysteine protease ATG4B = target: T1, Cysteine protease ATG4B (Homo sapiens, UniProt Q9Y4P1); format: functional;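 further: Fluorescence-based dose-response confirmation assay measuring inhibition of ATG4B activity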
# T1 sequence (Q9Y4P1 whole entry): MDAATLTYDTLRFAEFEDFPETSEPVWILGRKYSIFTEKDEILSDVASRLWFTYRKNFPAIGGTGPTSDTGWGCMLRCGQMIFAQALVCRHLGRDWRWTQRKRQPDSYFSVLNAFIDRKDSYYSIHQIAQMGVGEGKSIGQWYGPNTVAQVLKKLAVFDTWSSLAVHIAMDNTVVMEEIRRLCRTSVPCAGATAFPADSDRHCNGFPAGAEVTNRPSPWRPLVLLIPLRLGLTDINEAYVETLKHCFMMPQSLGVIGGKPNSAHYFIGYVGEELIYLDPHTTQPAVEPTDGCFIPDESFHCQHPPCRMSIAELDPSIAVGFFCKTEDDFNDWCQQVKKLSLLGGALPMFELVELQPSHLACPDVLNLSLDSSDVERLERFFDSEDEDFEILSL
# [1] = THP-1 cell cytotoxicity, dose response, cytotoxicity control for Vif-APOBEC3G degradation inhibitor project, THP-1 cells (AID 1117359); format: functional; details: Human immunodeficiency virus 1, THP-1
# [2] = target: T2, Runt-related transcription factor 1/Core-binding factor subunit beta (Homo sapiens, UniProt Q01196+Q13951); assay: inhibitors of RUNX1 Runt–CBFb-SMMHC binding, primary screen, biochemical, FRET, Cerulean-Runt, Venus-CBFb-SMMHC, uHTS (AID 1434); format: protein assay;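 further: partner is the CBFb-SMMHC leukemia fusion protein rather than wild-type CBFb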
# Phospholipase A2 = Phospholipase A2 (Homo sapiens, UniProt P04054); format: functional;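 further: confirmatory dose-response counterscreen on phospholipase A2, testing hits that came from an ultra-high-throughput screen for ATG4B inhibitors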
# NS3 = NS3 (Hepatitis C virus, UniProt A3EZJ3); assay: PubChem AID 2173; set-up: species or system Hepacivirus hominis
# [3] = target: T2, Runt-related transcription factor 1/Core-binding factor subunit beta; assay: inhibitors of RUNX1 Runt–CBFb-SMMHC binding, biochemical, TR-FRET (AID 1438); format: protein assay
# [4] = A Cell Based Secondary Assay To Explore Cytotoxicity of Compounds that Sensitize Mycobacterium Tuberculosis to Beta-Lactam Antibiotics.; format: functional
# [5] = target: T3, Calpain-2 catalytic subunit (Sus scrofa, UniProt P43367); assay: pig calpain II inhibitor potency, dose response, biochemical, fluorogenic peptide substrate (AID 1420); format: functional
# T3 sequence (P43367 whole entry): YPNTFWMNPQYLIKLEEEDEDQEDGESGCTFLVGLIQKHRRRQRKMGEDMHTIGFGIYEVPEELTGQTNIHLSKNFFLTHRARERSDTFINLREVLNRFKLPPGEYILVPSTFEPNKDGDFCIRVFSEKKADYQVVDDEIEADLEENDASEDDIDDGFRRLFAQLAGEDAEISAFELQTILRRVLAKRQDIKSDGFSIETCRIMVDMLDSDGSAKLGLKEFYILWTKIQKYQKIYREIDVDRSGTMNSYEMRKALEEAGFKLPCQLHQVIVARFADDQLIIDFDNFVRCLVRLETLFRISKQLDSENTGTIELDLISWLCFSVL
# Saccharomyces cerevisiae = assay: NALP1 inhibitor project selectivity study, Caspase-1/ASC signal blockade IC50 in S. cerevisiae (AID 488863); format: functional, organism-based
# [6] = target: NACHT, LRR and PYD domains-containing protein 1 (Homo sapiens, UniProt Q9C000); assay: NALP1 inhibitors in yeast, dose response, luminescent (AID 488860); format: functional
# Coagulation factor XII = Coagulation factor XII (Homo sapiens, UniProt P00748); format: functional;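 further: activated factor XIIa alpha cleaving a fluorogenic AMC peptide substrate; inhibitor potency from loss of enzyme activity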
# HEK293 = assay: cells; details: Homo sapiens;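 further: cells exposed to compound for 14 hours overnight before viability readout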
# Tumor necrosis factor = Tumor necrosis factor (Homo sapiens, UniProt P01375); assay: TNFa-triggered NF-kB activation inhibitors, SAR follow-up, cell-based, revised (AID 2337); format: functional
# [7] = target: T4, Nucleotide-binding oligomerization domain-containing protein 1 (Homo sapiens, UniProt Q9Y239); assay: NOD1 signaling inhibitors, SAR follow-up, revised (AID 2333); format: functional
# T4 sequence (Q9Y239 whole entry): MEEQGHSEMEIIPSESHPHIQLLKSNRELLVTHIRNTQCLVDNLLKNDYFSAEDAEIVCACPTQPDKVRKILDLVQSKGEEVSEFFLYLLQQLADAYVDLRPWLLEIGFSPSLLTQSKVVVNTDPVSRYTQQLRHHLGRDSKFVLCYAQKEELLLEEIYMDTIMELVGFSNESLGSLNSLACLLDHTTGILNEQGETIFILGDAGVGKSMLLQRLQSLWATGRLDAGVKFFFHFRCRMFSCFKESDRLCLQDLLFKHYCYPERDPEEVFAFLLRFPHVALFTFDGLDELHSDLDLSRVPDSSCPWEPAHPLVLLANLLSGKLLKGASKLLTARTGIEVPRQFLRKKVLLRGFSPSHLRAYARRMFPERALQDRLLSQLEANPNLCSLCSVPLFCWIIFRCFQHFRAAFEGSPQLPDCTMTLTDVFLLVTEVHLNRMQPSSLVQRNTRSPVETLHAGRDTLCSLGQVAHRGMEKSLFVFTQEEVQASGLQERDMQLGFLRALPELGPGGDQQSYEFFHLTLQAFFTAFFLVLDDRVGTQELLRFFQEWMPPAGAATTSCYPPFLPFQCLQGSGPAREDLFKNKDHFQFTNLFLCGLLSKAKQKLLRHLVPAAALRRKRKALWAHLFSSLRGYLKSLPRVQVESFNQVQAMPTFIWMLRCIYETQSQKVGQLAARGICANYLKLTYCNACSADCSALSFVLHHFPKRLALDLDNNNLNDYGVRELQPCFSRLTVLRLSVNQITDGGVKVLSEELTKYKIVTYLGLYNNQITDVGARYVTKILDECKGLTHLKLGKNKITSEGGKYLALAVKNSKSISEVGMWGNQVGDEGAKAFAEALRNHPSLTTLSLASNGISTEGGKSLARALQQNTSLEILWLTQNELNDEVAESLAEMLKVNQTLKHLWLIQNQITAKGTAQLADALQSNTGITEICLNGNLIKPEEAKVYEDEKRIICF
# [8] = target: Phosphoethanolamine/phosphocholine phosphatase (Homo sapiens, UniProt Q8TCT1); assay: SAR assay for compounds that inhibit PHOSPHO1. [Related pubchem assays (depositor defined):AID1545, AID1565, AID1574]
# Sequence of Phosphoethanolamine/phosphocholine phosphatase (Q8TCT1 whole entry): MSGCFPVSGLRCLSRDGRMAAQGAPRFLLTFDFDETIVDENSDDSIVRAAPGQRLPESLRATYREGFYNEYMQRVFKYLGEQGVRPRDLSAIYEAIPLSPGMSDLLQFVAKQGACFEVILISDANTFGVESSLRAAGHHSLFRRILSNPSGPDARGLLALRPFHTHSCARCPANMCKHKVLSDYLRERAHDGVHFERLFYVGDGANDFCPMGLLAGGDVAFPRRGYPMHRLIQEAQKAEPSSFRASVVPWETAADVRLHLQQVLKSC
# T2 sequence (Q01196 whole entry, the tested form may be a part): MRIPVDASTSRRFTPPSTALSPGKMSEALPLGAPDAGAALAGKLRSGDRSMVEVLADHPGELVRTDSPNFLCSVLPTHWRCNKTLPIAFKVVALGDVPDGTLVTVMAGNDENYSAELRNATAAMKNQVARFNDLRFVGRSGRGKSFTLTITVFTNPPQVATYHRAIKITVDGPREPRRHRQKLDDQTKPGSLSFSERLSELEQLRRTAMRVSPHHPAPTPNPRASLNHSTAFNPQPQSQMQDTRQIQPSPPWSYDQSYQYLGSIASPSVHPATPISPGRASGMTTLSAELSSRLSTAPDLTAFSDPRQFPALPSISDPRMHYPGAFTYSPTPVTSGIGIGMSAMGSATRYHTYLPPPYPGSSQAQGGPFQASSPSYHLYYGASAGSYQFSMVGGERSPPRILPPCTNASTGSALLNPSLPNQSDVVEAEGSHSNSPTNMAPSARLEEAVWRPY
# T2 sequence (Q13951 whole entry, the tested form may be a part): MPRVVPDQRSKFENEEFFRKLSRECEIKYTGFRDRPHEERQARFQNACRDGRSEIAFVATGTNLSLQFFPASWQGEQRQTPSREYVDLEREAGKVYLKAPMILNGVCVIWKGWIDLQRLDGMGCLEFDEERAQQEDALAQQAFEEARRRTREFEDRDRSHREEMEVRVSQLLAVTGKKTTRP
# Sequence of Coagulation factor XII (P00748 20-372 limits assumed): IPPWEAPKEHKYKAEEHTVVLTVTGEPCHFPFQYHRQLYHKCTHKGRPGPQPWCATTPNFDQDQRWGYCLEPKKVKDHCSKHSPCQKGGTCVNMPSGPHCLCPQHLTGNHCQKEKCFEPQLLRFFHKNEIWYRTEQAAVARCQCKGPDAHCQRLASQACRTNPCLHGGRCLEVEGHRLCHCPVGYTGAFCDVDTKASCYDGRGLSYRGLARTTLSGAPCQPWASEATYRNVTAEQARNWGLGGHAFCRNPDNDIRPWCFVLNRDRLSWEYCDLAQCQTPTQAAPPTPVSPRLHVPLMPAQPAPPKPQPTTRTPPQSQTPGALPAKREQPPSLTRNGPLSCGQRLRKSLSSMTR
# Sequence of Coagulation factor XII (P00748 373-615 limits assumed): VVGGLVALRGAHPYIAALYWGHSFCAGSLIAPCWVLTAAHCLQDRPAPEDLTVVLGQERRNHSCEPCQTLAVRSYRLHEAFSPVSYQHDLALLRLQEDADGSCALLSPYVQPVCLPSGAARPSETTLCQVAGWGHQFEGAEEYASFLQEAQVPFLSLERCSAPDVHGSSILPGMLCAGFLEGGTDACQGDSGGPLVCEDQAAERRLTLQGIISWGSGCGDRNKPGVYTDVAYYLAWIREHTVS
# Sequence of Phospholipase A2 (P04054 whole entry): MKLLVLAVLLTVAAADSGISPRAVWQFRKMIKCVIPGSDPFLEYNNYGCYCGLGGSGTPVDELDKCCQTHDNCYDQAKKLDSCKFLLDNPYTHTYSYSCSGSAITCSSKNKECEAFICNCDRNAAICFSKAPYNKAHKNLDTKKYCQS
# Sequence of NACHT, LRR and PYD domains-containing protein 1 (Q9C000 1-1212 limits assumed): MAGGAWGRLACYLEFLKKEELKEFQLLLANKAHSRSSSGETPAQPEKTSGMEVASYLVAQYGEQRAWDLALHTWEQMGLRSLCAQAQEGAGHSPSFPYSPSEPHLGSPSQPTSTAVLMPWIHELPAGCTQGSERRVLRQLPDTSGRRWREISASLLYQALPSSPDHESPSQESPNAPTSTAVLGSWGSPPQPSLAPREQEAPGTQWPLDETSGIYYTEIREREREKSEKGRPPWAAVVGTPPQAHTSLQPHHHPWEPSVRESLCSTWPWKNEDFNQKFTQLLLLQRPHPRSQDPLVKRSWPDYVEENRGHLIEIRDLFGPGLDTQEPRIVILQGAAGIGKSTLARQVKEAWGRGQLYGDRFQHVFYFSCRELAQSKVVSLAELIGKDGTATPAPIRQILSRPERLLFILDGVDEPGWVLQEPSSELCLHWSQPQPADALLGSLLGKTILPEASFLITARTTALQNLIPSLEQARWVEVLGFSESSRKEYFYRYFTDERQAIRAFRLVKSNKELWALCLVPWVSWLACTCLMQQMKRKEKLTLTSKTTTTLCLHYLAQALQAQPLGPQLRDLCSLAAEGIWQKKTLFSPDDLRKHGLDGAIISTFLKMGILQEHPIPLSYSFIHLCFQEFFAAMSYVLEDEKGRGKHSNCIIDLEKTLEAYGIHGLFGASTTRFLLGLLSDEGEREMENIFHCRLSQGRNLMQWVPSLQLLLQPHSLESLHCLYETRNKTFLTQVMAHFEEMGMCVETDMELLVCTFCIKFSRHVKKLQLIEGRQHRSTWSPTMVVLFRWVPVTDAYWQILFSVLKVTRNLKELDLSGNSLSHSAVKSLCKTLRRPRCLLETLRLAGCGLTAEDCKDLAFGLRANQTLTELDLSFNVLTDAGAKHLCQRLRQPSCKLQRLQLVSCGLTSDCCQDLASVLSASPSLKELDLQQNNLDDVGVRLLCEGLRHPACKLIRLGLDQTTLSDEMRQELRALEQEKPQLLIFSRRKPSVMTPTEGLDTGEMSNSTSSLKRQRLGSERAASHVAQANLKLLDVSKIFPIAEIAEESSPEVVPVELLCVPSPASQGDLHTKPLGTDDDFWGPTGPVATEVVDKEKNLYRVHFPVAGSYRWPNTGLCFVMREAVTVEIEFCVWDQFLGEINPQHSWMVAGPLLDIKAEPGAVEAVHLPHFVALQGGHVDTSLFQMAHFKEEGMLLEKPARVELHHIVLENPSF
# Sequence of NACHT, LRR and PYD domains-containing protein 1 (Q9C000 1213-1473 limits assumed): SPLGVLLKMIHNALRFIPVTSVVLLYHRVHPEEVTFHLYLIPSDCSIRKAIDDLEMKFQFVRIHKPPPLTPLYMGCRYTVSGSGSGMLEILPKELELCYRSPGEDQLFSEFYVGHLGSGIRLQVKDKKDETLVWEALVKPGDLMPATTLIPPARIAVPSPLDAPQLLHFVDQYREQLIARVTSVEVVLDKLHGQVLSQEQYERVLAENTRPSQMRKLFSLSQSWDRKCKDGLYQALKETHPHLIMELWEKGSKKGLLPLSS
# Sequence of Tumor necrosis factor (P01375 whole entry, the tested form may be a part): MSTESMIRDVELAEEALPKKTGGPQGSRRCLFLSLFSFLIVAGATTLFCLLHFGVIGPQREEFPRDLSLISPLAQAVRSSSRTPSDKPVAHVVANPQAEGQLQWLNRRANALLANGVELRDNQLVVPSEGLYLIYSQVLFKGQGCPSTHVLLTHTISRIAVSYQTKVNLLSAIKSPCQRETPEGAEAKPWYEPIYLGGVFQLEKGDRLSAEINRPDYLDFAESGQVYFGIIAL
# Sequence of NS3 (A3EZJ3 whole entry): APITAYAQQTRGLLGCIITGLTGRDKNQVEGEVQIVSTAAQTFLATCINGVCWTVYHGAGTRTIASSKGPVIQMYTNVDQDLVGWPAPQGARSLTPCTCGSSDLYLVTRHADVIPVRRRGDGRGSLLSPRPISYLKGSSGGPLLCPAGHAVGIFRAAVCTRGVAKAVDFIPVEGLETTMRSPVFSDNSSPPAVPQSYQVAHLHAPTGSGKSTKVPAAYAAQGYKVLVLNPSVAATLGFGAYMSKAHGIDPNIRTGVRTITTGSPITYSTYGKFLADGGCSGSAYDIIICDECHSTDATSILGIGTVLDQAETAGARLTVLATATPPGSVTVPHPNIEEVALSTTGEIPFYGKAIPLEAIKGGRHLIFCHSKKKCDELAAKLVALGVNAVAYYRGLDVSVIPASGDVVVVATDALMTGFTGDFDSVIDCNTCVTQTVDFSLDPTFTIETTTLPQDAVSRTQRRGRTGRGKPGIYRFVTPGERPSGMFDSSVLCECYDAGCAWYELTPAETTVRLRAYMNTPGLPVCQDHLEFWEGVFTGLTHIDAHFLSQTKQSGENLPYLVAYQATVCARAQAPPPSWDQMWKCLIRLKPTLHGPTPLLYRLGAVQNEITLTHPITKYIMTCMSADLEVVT
structure (smiles),measurement,setting,value
CC1CCCCC1NC(=O)COC(=O)c1c2c(nc3ccccc13)/C(=C/c1ccco1)CC2 (centres undefined),IC50,Cysteine protease ATG4B,14.4 µM (active)
same,CC50,[1],> 40 µM (active)
same,IC50,[2],> 100 µM (inactive)
same,IC50,Phospholipase A2,8.31 µM (active)
same,IC50,NS3,11.1 µM (not active)
same,IC50,[3],10.6 µM (active)
COc1ccc(C(=O)Nc2oc(-c3ccccc3)c(-c3ccccc3)c2C#N)cc1OC,CC50,[4],> 40 µM (active)
CCOCCCn1c(=N)c(C(N)=S)cc2c(=O)n3cccc(C)c3nc21,IC50,[2],0.257 µM (active)
same,IC50,[3],68.8 µM (inactive)
O=[N+]([O-])c1cc(C(F)(F)F)ccc1NCCc1c[nH]c2ccc(O)cc12,CC50,[4],> 40 µM (active)
same,IC50,[5],7.48 µM (not active)
C=C(C)C(=O)Nc1nnc(-c2cccs2)s1,IC50,Saccharomyces cerevisiae,15 µM (active)
same,IC50,[6],11 µM (active)
O=C(Nc1ncnc2sc3c(c12)CCCCC3)c1ccc(F)cc1,IC50,Coagulation factor XII,> 50 µM (inactive)
COC(=O)c1c(NC(=O)c2ccc(Cl)cc2)sc2c1CCCC2,IC50,HEK293,> 20 µM (inactive)
same,IC50,Tumor necrosis factor,> 20 µM (inactive)
same,IC50,[7],> 20 µM (inactive)
c1ccc(Nc2nc(-c3ccccc3)[n+](-c3ccccc3)s2)cc1,IC50,[8],4.99 µM (inactive)
CN(C)c1ccc(C(=S)N2CCOCC2)cc1 [(4-(DIMETHYLAMINO)PHENYL)(MORPHOLINO)METHANETHIONE],IC50,Coagulation factor XII,> 50 µM (inactive)
